Measurements as given in the supplement of paper PMC10949913.

Legend:
Experiment in all cases: area under concentration-response curve (viability) (AUC (a.u.)); higher = less active
Details in all cases: 48 h
CU-ACC1 = system: CU-ACC1
Outline: (§1)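 After 48 h of treatment with 23 nL of each library compound at 11 concentrations, three adrenocortical carcinoma cell lines in 1,536-well plates (500–1,000 cells/well, 5 µL medium) were given CellTiter-Glo for 15 minutes at room temperature. Luminescence was then read and normalised per plate to vehicle and empty-well controls. AC50 and area under the curve were drawn from fitted concentration-response curves of inhibitory or non-responding classes only.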

CU-ACC2 = system: CU-ACC2
Outline: as §1

NCI-H295R = system: NCI-H295R
Outline: as §1

SMILES	area under concentration-response curve (CU-ACC1)	area under concentration-response curve (CU-ACC2)	area under concentration-response curve (NCI-H295R)
CCCc1nc(C(C)(C)O)c(C(=O)O)n1Cc1ccc(-c2ccccc2-c2nn[nH]n2)cc1	436	521	462
N=C(N)NC(=O)c1nc(Cl)c(N)nc1N	455	658	615
CNC(=O)[C@H](Cc1ccccc1)NC(=O)[C@H](CC(C)C)[C@H](CSc1cccs1)C(=O)NO	480	596	560
CC1=C(C)C\2=C(S1)[N]3C(=NN=C3C(CC(N)=O)\N=C2C4=CC=C(Cl)C=C4)C (centres undefined)	439	480	431
CNC(=O)c1cccc(-c2ccc3c(N4CCOC[C@@H]4C)nc(N4CCOC[C@@H]4C)nc3n2)c1	452	545	453
CCCCNc1ncc(-c2ccc(CN3CCOCC3)cn2)c(N[C@H]2CC[C@H](O)CC2)n1	612	721	623
O=C(O)CCn1c2c(c3ccccc31)C[C@H](N[S+](=O)([O-])c1ccc(F)cc1)CC2	445	540	496
Clc1ccc2c(N3CCN(CCCN4CCN(c5ccnc6cc(Cl)ccc56)CC4)CC3)ccnc2c1	433	450	451
C[C@H]1CN(C[C@H](Cc2ccccc2)C(=O)NCC(=O)O)CC[C@@]1(C)c1cccc(O)c1	569	662	577
Oc1ccc(OCc2ccccc2)cc1	378	353	417
NC(=O)NO	503	590	511
CC(C)Oc1ccc(-c2nc(-c3cccc4c3CC[C@@H]4NCCO)no2)cc1C#N	370	502	481
CCOC\1=C(/C(=O)NC2=CC=C(OC3=C(Cl)C(=NC=C3)N)C(=C2)F)C(=O)N(\C=C1)C4=CC=C(F)C=C4	522	578	530
COc1cc[nH]c2ncc(C(=O)C(=O)N3CCN(C(=O)c4ccccc4)C[C@H]3C)c1-2	545	632	560
CNC1CCCN(C1)C2=C(F)C=C3C(=O)\C(=C/N(C4CC4)C3=C2OC)C(O)=O (centres undefined)	530	655	564
O=C1CCC[C@@H]2[C@H]3CCC[N+]4([O-])CCC[C@@H](CN12)[C@@H]34 (some centres undefined)	536	610	552
CNCC(O)c1ccc(O)cc1 (centres undefined)	565	618	579
CC[C@H]1OC(=O)[C@H](C)C(=O)[C@H](C)[C@@H](O[C@H]2O[C@H](C)C[C@H](N(C)C)[C@H]2O)[C@](C)(OC)C[C@@H](C)C(=O)[C@H](C)[C@H]2N(CCCCn3cnc(-c4cccnc4)c3)C(=O)O[C@]12C	436	452	419
NC/1=N/C(=O)C/2=C(/NCC3CN(CN23)C4=CC=C(C=C4)C(=O)N[C@@H](CCC(O)=O)C(O)=O)N1 (some centres undefined)	475	565	526
COC(=O)N(C)c1c(N)nc(-c2nn(Cc3ccccc3F)c3ncccc23)nc1N	488	586	488
Cc1nc(-c2ccc(OCC(C)C)c(C#N)c2)sc1C(=O)O	478	544	306
COc1ccccc1OCC(O)CN1CCN(CC(=O)Nc2c(C)cccc2C)CC1 (centres undefined)	535	627	569
CCn1nc(C2CCN(C(=O)CCO)CC2)nc1-c1cnc(N)c(-c2nnc(C(C)(C)C)o2)n1	387	504	507
